Calls of active or inactive are those of the source. No cut-off for these calls is given here.
Legend:
Type in all cases: functional
[1] = Antioxidant activity assessed as hydroxyl radical-induced DNA oxidation at 0.2 mM after 30 min by TBARS assay (reference value: 100%)
[2] = Inhibition of Cu2+/GSH-induced DNA oxidation at 0.2 mM by TBARS assay
[3] = Inhibition of AAPH-induced DNA oxidation by TBARS assay

Question: What does the source list for C=C(C)C(C)c1cc(/C=C/C(=O)c2ccc(O)cc2)cc(OC)c1O (centres undefined)?
Answer: Activity [1]: 91.3%; inhibition [2]: Active; inhibition [3]: Active

Question: Which Activity [1] does the source give for C=C(C)C(C)c1cc(/C=C/C(=O)c2ccc(O)cc2O)cc(OC)c1O (centres undefined) here?
Answer: 106%

Question: What about the inhibition [2] of the same compound?
Answer: Active

Question: What about the inhibition [3] of the same compound?
Answer: Active

Question: Which Activity [1] does the source give for C=C(C)C(C)c1cc(/C=C/C(=O)c2c(O)cc(O)cc2O)cc(OC)c1O (centres undefined) here?
Answer: 98.2%

Question: And the inhibition [2]?
Answer: Active

Question: And the inhibition [3]?
Answer: Active
